# Test results: PubChem BioAssay (NCI)
# Values joined by “and” are separate entries in the source; they are usually repeats but may differ in a detail not shown here. Equal values may be shown once.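 Step 1: Grow cells in 96-well plates. Step 2: Expose to compound for 48 hours at 5 concentrations. Step 3: Interpolate endpoints linearly; if unreached, use highest concentration. GI50: concentration for 50% inhibition of growth. TGI marks complete inhibition of growth.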
# What was measured:
# Assay in all cases: inhibition of tumour cell growth, NCI panel, 48 h
# [1] = test system: KM12 colon
# [2] = test system: LOX IMVI melanoma
# [3] = test system: MDA-MB-435
# [4] = test system: MDA-N
# [5] = test system: NCI-H226 lung
# [6] = test system: NCI-H460 lung
# [7] = test system: OVCAR-4 ovarian
# [8] = test system: RPMI-8226 leukemia
# [9] = test system: SF-268 CNS
# [10] = test system: TK-10 renal
Structure (SMILES),GI50 [1],TGI [1],GI50 [2],TGI [2],TGI [3],TGI [4],TGI [5],TGI [6],GI50 [7],TGI [7],GI50 [8],TGI [8],TGI [9],GI50 [10],TGI [10],GI50 [9]
NC(CS)C(=O)NCCNc1ccc(NCCNC(=O)C(N)CS)c2c1C(=O)c1c(O)ccc(O)c1C2=O (centres undefined),0.0393 µM,0.874 µM and 0.264 µM,0.0149 µM,0.205 µM and 0.165 µM,1.86 µM,1.68 µM,0.0616 µM and 0.0476 µM,0.208 µM and 0.125 µM,0.109 µM,0.847 µM and 0.401 µM,0.0152 µM,0.744 µM and 0.0804 µM,0.953 µM,0.08 µM,3.58 µM and 0.49 µM,
CCc1n[nH]c(=O)n1N=C(c1ccccc1)c1ccccc1,,> 100 µM,,> 100 µM,> 100 µM,> 100 µM,> 100 µM,> 100 µM,,> 100 µM,,> 100 µM,> 100 µM,,> 100 µM,
CC1(C)OC2OC(C(=O)c3ccccc3)C3OC(C)(C)OC3C2O1 (centres undefined),,> 100 µM,,> 100 µM,> 100 µM,> 100 µM,> 100 µM,> 100 µM,,> 100 µM,,> 100 µM,> 100 µM,,> 100 µM,
Cc1sc2nc3n(c(=O)c2c1C)N=C(c1ccccc1)CS3,,> 100 µM,,> 100 µM,> 100 µM,> 100 µM,> 100 µM,> 100 µM,,> 100 µM,,> 100 µM,> 100 µM,,> 100 µM,
COc1cc(CC(=O)c2cc3c(cc2-c2ccccc2)OCO3)cc(OC)c1OC,,> 100 µM,,> 100 µM,,,79.3 µM,> 100 µM,,> 100 µM,,,> 100 µM,,> 100 µM,
CCSc1[nH]c(NC(=NC(C)C)NC(=O)c2ccccc2)c(C(N)=O)c1C(N)=O,,> 10 µM,,> 10 µM,> 10 µM,> 10 µM,,,,> 10 µM,,> 10 µM,> 10 µM,,> 10 µM,
Nc1ccn(CCCC(c2ccccc2)P(=O)(O)O)c(=O)n1 (centres undefined),,> 100 µM,,> 100 µM,,,,> 100 µM,,,,> 100 µM,> 100 µM,,> 100 µM,
COC(=O)C1CCCN1C(=O)OC(C)(C)C (centres undefined),,> 100 µM,,> 100 µM,> 100 µM,> 100 µM,> 100 µM,> 100 µM,,> 100 µM,,,> 100 µM,,> 100 µM,
O=C1CCc2ccccc2O1,,> 100 µM,,> 100 µM,> 100 µM,> 100 µM,> 100 µM,> 100 µM,,> 100 µM,,> 100 µM,> 100 µM,,> 100 µM,
O=C1C(=Cc2ccc([N+](=O)[O-])o2)C(=O)N(CCc2ccccc2)S(=O)(=O)N1CCc1ccccc1,,> 100 µM,,35 µM,,,41.4 µM,> 100 µM,,30 µM,,> 100 µM,57.8 µM,,> 100 µM,
CC(C)(/C=N/O)/[N+]([O-])=C/c1ccccc1,,> 100 µM,,> 100 µM,> 100 µM,> 100 µM,> 100 µM,> 100 µM,,> 100 µM,,> 100 µM,> 100 µM,,> 100 µM,
CN(C)C1(c2cc3ccccc3s2)CCCCC1,,> 100 µM,,60.9 µM,> 100 µM,> 100 µM,> 100 µM,> 100 µM,,> 100 µM,,,52 µM,,> 100 µM,
O=C(CSc1nnc(-c2ccc(N=Cc3ccc(Cl)cc3)cc2)o1)Nc1cccc([N+](=O)[O-])c1,,> 100 µM,,> 100 µM,,,> 100 µM,> 100 µM,,> 100 µM,,> 100 µM,> 100 µM,,> 100 µM,
Cn1c(=O)oc2cc(C(=S)N3CCCCC3)ccc21,,> 100 µM,,> 100 µM,> 100 µM,> 100 µM,> 100 µM,> 100 µM,,,,> 100 µM,> 100 µM,,> 100 µM,
COc1ccc(N2C(=O)C3C=CC(n4[nH]c(=O)n(Cc5ccccc5)c4=O)CC3C2=O)cc1 (centres undefined),,> 100 µM,,> 100 µM,,,> 100 µM,> 100 µM,,,,> 100 µM,> 100 µM,,> 100 µM,
O=C1C(Cl)C(c2ccc([N+](=O)[O-])cc2)N1n1cnc2ccccc2c1=O (centres undefined),,> 100 µM,,> 100 µM,,,> 100 µM,> 100 µM,,25.2 µM,,,97.3 µM,,83.2 µM,
COc1ccc(C2NC3=C(CCCC3)N2)cc1,,> 100 µM,,> 100 µM,,,> 100 µM,> 100 µM,,> 100 µM,,> 100 µM,> 100 µM,,> 100 µM,
CON(C(=O)OC(C)(C)C)c1ccccc1,,> 100 µM,,> 100 µM,> 100 µM,,> 100 µM,> 100 µM,,> 100 µM,,> 100 µM,> 100 µM,,> 100 µM,
NNC(=S)NN/C=C(\C=Nc1ccccc1)[N+](=O)[O-],,,,> 100 µM,,,> 100 µM,,,> 100 µM,,> 100 µM,> 100 µM,,> 100 µM,
Cc1cc(=O)[nH]c(NNC(C#N)c2ccc(N(C)C)cc2)n1 (centres undefined),,> 100 µM,,> 100 µM,,,> 100 µM,> 100 µM,,> 100 µM,,> 100 µM,> 100 µM,,> 100 µM,
COc1cc(CC2C(=O)OCC2[C@@H](OC(C)=O)c2ccc3c(c2)OCO3)c(Br)c(OC)c1OC (some centres undefined),,> 100 µM,,> 100 µM,,,,> 100 µM,,> 100 µM,,,> 100 µM,,> 100 µM,
CCC1OC2C(CC=C(C)C)=C3OC(C)(O)C(C)(CC)C(=O)C3=C3OC(=O)C=C1C32 (centres undefined),,> 100 µM,,27.3 µM,> 100 µM,,> 100 µM,92.5 µM,,> 100 µM,,> 100 µM,> 100 µM,,> 100 µM,
O=C1NC2OC(CO)C(O)C(O)C2O1 (centres undefined),,> 100 µM,,> 100 µM,,,,> 100 µM,,> 100 µM,,,> 100 µM,,> 100 µM,
O=C1[C@H](O)[C@@H]2CCC[C@@]23CCCN13,,> 100 µM,,> 100 µM,> 100 µM,> 100 µM,> 100 µM,> 100 µM,,,,> 100 µM,> 100 µM,,> 100 µM,
CC(C)(CO)NC(=O)c1cccs1,,> 100 µM,,> 100 µM,> 100 µM,,,> 100 µM,,> 100 µM,,> 100 µM,> 100 µM,,> 100 µM,

Structure (SMILES),GI50 [1],TGI [1],GI50 [2],TGI [2],TGI [3],TGI [4],TGI [5],TGI [6],GI50 [7],TGI [7],GI50 [8],TGI [8],TGI [9],GI50 [10],TGI [10],GI50 [9]
COc1cc2c(cc1OC)-c1[nH]c3ccc([N+](=O)[O-])cc3c1CC(=O)N2,,> 56.1 µM,,> 100 µM,> 100 µM,> 100 µM,1.66 µM,6.4 µM,,> 32.1 µM,,47.8 µM,,,8.92 µM,
Brc1ccc(C[N+]23CN4CN(CN(C4)C2)C3)cc1,,> 100 µM,,48 µM,,,,> 100 µM,,,,59.5 µM,> 100 µM,,> 100 µM,
COc1cc(O)c2c(=O)c(OC)c(-c3ccc(OC)c(OC)c3)oc2c1.[Sn],,,29.8 µM,> 100 µM,,> 100 µM,> 100 µM,> 100 µM,8.24 µM,> 100 µM,,> 100 µM,> 100 µM,,> 100 µM,> 100 µM
CCOC(=O)C1=C(O)c2ccc(OC)cc2C(=O)C1=O,,> 100 µM,,> 100 µM,,,> 100 µM,> 100 µM,,> 100 µM,,> 100 µM,> 100 µM,,> 100 µM,
COc1cc(C(=O)N(C(=O)N2CCCCC2)c2ccccc2)cc(OC)c1OC,,> 100 µM,,> 100 µM,> 100 µM,> 100 µM,> 100 µM,> 100 µM,,,,> 100 µM,,,,
COc1ccccc1[C@@H]1CCC2CC[C@@H](c3ccccc3OC)[N+]21Cc1ccccc1 (some centres undefined),,7.03 µM,,13.2 µM,10.5 µM,12.6 µM,6.73 µM,,,16.1 µM,,1.47 µM,17.4 µM,,20.3 µM,
CC(=O)Nc1ccc(C(=O)n2[nH]c(C)c(/C=C3\C(=O)C=Cc4ccccc43)c2=O)cc1,,> 100 µM,,> 100 µM,,,> 100 µM,> 100 µM,,> 100 µM,,> 100 µM,> 100 µM,,,
O=[N+]([O-])c1ccc2c(N=Nc3ccc4ccccc4c3O)c(O)cc(S(=O)(=O)O)c2c1,,> 100 µM,,> 90.2 µM,> 100 µM,,52.5 µM,> 100 µM,,> 100 µM,,61.5 µM,63.9 µM,,> 100 µM,
O=C1NC(Cc2ccccc2)C(=O)N2CCCC12 (centres undefined),,> 100 µM,,> 100 µM,,,> 100 µM,> 100 µM,,> 100 µM,,> 100 µM,> 100 µM,,> 100 µM,
O=C(NCCC1CN(S(=O)(=O)C(F)(F)F)c2ccccc21)OCc1ccccc1 (centres undefined),,> 100 µM,,,> 100 µM,,,> 100 µM,,> 100 µM,,> 100 µM,> 100 µM,,,
CCN(CCN(CC)C(=O)NC)C(=O)NC,,,,> 100 µM,,> 100 µM,> 100 µM,> 100 µM,,,,> 100 µM,> 100 µM,,> 100 µM,
N/C(=N/N=C/c1cccc(F)c1)NO,,> 100 µM,,97.7 µM,,,> 100 µM,> 100 µM,,> 100 µM,,> 100 µM,68.7 µM,,> 100 µM,
COc1ccc(Oc2nc3c(N)cc(C(F)(F)F)cc3nc2-c2ccccc2)cc1,,31.6 µM,,53.6 µM,> 100 µM,,35.7 µM,57.8 µM,,> 100 µM,,> 100 µM,64.5 µM,,> 100 µM,
COc1c(C)c(C/C=C(\C)CCCCO)c(OC)c2ccccc12,,54.9 µM,,37.6 µM,99.2 µM,> 100 µM,,37.8 µM,,> 100 µM,,> 100 µM,> 100 µM,,> 100 µM,
COC(=O)C1=C(C)NC2=C(C(=O)c3ccccc32)C1c1cn[nH]c1-c1ccccc1 (centres undefined),,> 100 µM,,,> 100 µM,> 100 µM,> 100 µM,> 100 µM,,> 100 µM,,> 100 µM,> 100 µM,,,
CCOC(=O)[C@@]12NN=N[C@@H]1[C@H]1CO[C@H](c3ccccc3)N1C2=O,,35 µM,,4.92 µM,35.6 µM,25.7 µM,,20.5 µM,,32.4 µM,,8.71 µM,30.8 µM,,30.5 µM,
Cc1ccc(Cc2n[nH]c(=O)n2N2C(=O)c3ccccc3C2=O)cc1,,> 100 µM,,> 100 µM,> 100 µM,> 100 µM,> 100 µM,> 100 µM,,> 100 µM,,,,,> 100 µM,
CC(=O)OC12OC(C)(C3C(=O)N(c4ccccc4)C(=O)C31)N(c1ccccc1)C2=O (centres undefined),,> 100 µM,,> 100 µM,> 100 µM,> 100 µM,> 100 µM,> 100 µM,,> 100 µM,,,> 100 µM,,> 100 µM,
COc1ccc(OC)c(-c2cc(=O)c3cc4c(cc3[nH]2)OCO4)c1,,> 46 µM,,> 100 µM,,,55.6 µM,> 37.2 µM,,> 100 µM,,> 46.6 µM,> 100 µM,,> 83.3 µM,
COC(=O)CC1NC(=O)C1C(C)(OC)OC (centres undefined),,,,> 100 µM,,,> 100 µM,> 100 µM,,> 100 µM,,> 100 µM,> 100 µM,,> 100 µM,
COc1cccc(/C=N/NC(=O)CN(C)C)c1O,,> 100 µM,,> 100 µM,> 100 µM,> 100 µM,> 100 µM,> 100 µM,,> 100 µM,,,> 100 µM,,> 100 µM,
C[C@]12CCC(=O)C=C1CC[C@@H]1C2CC[C@@]2(C)C1CC[C@@H]2OC(=O)C12OC1CCC2=O (some centres undefined),,35 µM,,31.1 µM,,,38.2 µM,31.8 µM,,41.5 µM,,52.1 µM,41.2 µM,,35.9 µM,
COc1ccc(C=NCCCN=Cc2ccc(OC)cc2O)c(O)c1,,> 100 µM,,,> 100 µM,,59.3 µM,> 100 µM,,> 100 µM,,> 100 µM,,,> 100 µM,
CCCCc1c2c(nc3c1CCCC3=O)CCCC2,,> 100 µM,,> 100 µM,,,65.6 µM,> 100 µM,,,,> 100 µM,> 100 µM,,,
